Source: patent publication US9394297B2, “Amides as pim inhibitors” (AMGEN INC., priority 2012, dated 2016)
Where two headings read alike, the source gives them in different places.

What was measured:
Pim-1 = Pim-1 (Homo sapiens (Human), UniProt P11309); test: Pim enzyme assay (HTRF, 96-well), Pim-1; format: biochemical; conditions: full length recombinant Pim-1, biotinylated-BAD (S112) peptide, 10-point curve, 2 h RT, read-out: Pim-1 IC50 IP
How it was run: (§1)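 HTRF detection of biotinylated BAD (S112) phosphorylation by full-length recombinant His-tagged Pim-1 or Pim-2 in 60 mM Hepes pH 7.0, 0.05% BSA, 2 mM DTT at 22 °C: 2 h for Pim-1, 45 min for Pim-2. Stopped with EDTA; IC50 from 4-parameter logistic fit of percent of control.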

Pim-2 = Pim-2 (Homo sapiens (Human), UniProt Q9P1W9); test: Pim enzyme assay (HTRF, 96-well), Pim-2; format: biochemical; conditions: full length recombinant Pim-2, biotinylated-BAD (S112) peptide, 10-point curve, 45 min RT, read-out: Pim-2 IC50 IP
How it was run: as §1

[1] = tested on: KMS-12-BM myeloma cell line; test: Pim KMS-12 cell assay (phospho-BAD S112 / total BAD, MSD); conditions: Homo sapiens, KMS-12-BM
[2] = read-out: KMS-12-BM IC50 IP, KMS-12-BM cells, phospho-BAD (S112) vs total BAD, 1 hour 50 min with compound

Pim-1, sequence (P11309 whole entry): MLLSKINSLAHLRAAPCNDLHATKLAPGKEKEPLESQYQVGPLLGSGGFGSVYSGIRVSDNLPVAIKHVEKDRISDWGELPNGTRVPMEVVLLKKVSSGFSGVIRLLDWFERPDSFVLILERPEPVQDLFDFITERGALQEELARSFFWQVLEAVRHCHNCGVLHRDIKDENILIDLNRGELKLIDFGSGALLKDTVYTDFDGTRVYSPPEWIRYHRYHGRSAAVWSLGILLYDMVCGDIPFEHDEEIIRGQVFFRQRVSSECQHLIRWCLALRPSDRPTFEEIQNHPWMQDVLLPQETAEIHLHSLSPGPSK
Pim-2, sequence (Q9P1W9 whole entry): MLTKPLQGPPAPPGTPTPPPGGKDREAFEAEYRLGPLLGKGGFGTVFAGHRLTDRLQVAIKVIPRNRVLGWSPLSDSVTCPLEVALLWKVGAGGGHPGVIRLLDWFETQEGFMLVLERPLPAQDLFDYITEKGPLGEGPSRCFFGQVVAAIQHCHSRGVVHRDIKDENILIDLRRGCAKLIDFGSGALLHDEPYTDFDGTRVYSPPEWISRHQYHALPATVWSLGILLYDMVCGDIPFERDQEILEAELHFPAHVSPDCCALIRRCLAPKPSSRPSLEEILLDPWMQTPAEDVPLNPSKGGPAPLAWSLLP

IC50 (Pim-1) | IC50 (Pim-2) | IC50 [1, 2] | Compound | IC50 ([1]; read-out: KMS-12-BM IC50 IP)
3.6 nM | 9.1 nM | 3460 nM | O=C1NCCc2[nH]c(-c3cccc4ccc(Oc5cccc(F)c5)nc34)cc21 [Example 42, 2-(2-(3-fluorophenoxy)-8-quinolinyl)-1,5,6,7-tetrahydro-4H-pyrrolo[3,2-c]pyridin-4-one] | –
1.5 nM | 1.6 nM | 165 nM | Cc1nc2cccc(-c3cc4c([nH]3)CCNC4=O)c2nc1Nc1ccccc1 [Example 183, 2-(2-methyl-3-(phenylamino)quinoxalin-5-yl)-6,7-dihydro-1H-pyrrolo[3,2-c]pyridin-4(5H)-one] | –
2.6 nM | 4.7 nM | 3580 nM | O=C1NCCc2[nH]c(-c3cccc4ccc(Oc5c(F)cccc5F)nc34)cc21 [Example 176, 2-(2-(2,6-difluorophenoxy)quinolin-8-yl)-6,7-dihydro-1H-pyrrolo[3,2-c]pyridin-4(5H)-one] | –
1.9 nM | 4.3 nM | 1280 nM | CC1CNC(=O)c2cc(-c3cccc4ncc(Nc5ccccc5)nc34)[nH]c21 (racemic) [Example 187, rac-7-methyl-2-(3-(phenylamino)quinoxalin-5-yl)-6,7-dihydro-1H-pyrrolo[3,2-c]pyridin-4(5H)-one] | –
4.5 nM | 10.5 nM | 8440 nM | Cc1cc2cccc(-c3cc4c([nH]3)CCNC4=O)c2nc1Nc1ccc(Br)cc1 [Example 106, 2-(2-((4-bromophenyl)amino)-3-methylquinolin-8-yl)-6,7-dihydro-1H-pyrrolo[3,2-c]pyridin-4(5H)-one] | –
1.1 nM | 6 nM | 2340 nM | CCN(c1ccccc1)c1ccc2cccc(-c3cc4c([nH]3)CCNC4=O)c2n1 [Example 14, 2-(2-(ethyl(phenyl)amino)quinolin-8-yl)-6,7-dihydro-1H-pyrrolo[3,2-c]pyridin-4(5H)-one] | –
3 nM | 0.9 nM | 1610 nM | O=C1NCCc2[nH]c(-c3c(F)ccc4ccc(Nc5cccnc5)nc34)cc21 [Example 228, 2-(7-fluoro-2-(pyridin-3-ylamino)quinolin-8-yl)-6,7-dihydro-1H-pyrrolo[3,2-c]pyridin-4(5H)-one] | –
1.5 nM | 13.4 nM | 6740 nM | O=C1NCCc2[nH]c(-c3cccc4ccc(Nc5ccccc5Cl)nc34)cc21 [Example 108, 2-(2-((2-chlorophenyl)amino)quinolin-8-yl)-6,7-dihydro-1H-pyrrolo[3,2-c]pyridin-4(5H)-one] | –
0.1 nM | 0.3 nM | 348 nM | N[C@@H]1CCC[C@H](Nc2ccc3cccc(-c4cc5c([nH]4)CCNC5=O)c3n2)C1 (single isomer, unassigned) [Example 122, 2-(2-((cis-3-aminocyclohexyl)amino)quinolin-8-yl)-6,7-dihydro-1H-pyrrolo[3,2-c]pyridin-4(5H)-one] | –
7.6 nM | 4.7 nM | 217 nM | C=C(C)CNc1nc2c(-c3cc4c([nH]3)CCNC4=O)cccc2nc1C [Example 135, 2-(2-methyl-3-((2-methylallyl)amino)quinoxalin-5-yl)-6,7-dihydro-1H-pyrrolo[3,2-c]pyridin-4(5H)-one] | –
5.2 nM | 32.2 nM | 15600 nM | O=c1[nH]ccc2[nH]c(-c3cccc4ccc(Nc5ccccc5Cl)nc34)cc12 [Example 107, 2-(2-((2-chlorophenyl)amino)quinolin-8-yl)-1H-pyrrolo[3,2-c]pyridin-4(5H)-one] | –
6.1 nM | 10.3 nM | 7000 nM | O=C1NCCc2[nH]c(-c3cccc4ccc(Oc5ccccc5F)nc34)cc21 [Example 11, 2-(2-(2-fluorophenoxy)quinolin-8-yl)-6,7-dihydro-1H-pyrrolo[3,2-c]pyridin-4(5H)-one] | –
12.1 nM | 21.1 nM | 7490 nM | O=C1NCCc2[nH]c(-c3cccc4ccc(Oc5ccc(F)cc5F)nc34)cc21 [Example 10, 2-(2-(2,4-difluorophenoxy)quinolin-8-yl)-6,7-dihydro-1H-pyrrolo[3,2-c]pyridin-4(5H)-one] | –
36.2 nM | 17.6 nM | 966 nM | Cc1nc2cccc(-c3cc4c([nH]3)CCNC4=O)c2nc1Nc1ccccn1 [Example 190, 2-(2-methyl-3-(pyridin-2-ylamino)quinoxalin-5-yl)-6,7-dihydro-1H-pyrrolo[3,2-c]pyridin-4(5H)-one] | –
12.4 nM | 18.4 nM | 4660 nM | O=C1NCCc2[nH]c(-c3cccc4ncc(Oc5ccccc5)nc34)cc21 [Example 177, 2-(3-phenoxyquinoxalin-5-yl)-6,7-dihydro-1H-pyrrolo[3,2-c]pyridin-4(5H)-one] | –
0.6 nM | 4.6 nM | 2210 nM | N[C@H]1CCC[C@H](Nc2ccc3cccc(-c4cc5c([nH]4)CCNC5=O)c3n2)C1 (racemic) [Example 120, rac-2-(2-((trans-3-aminocyclohexyl)amino)quinolin-8-yl)-6,7-dihydro-1H-pyrrolo[3,2-c]pyridin-4(5H)-one] | –
2.8 nM | 21.6 nM | 4920 nM | O=C1NCCc2[nH]c(-c3cccc4ccc(NCc5ccccc5)nc34)cc21 [Example 21, 2-(2-(benzylamino)quinolin-8-yl)-6,7-dihydro-1H-pyrrolo[3,2-c]pyridin-4(5H)-one] | –
0.8 nM | 1.2 nM | 407 nM | Cc1cc2cccc(-c3cc4c([nH]3)CCNC4=O)c2nc1Nc1ccccc1 [Example 105, 2-(3-methyl-2-(phenylamino)quinolin-8-yl)-6,7-dihydro-1H-pyrrolo[3,2-c]pyridin-4(5H)-one] | –
1 nM | 5.2 nM | 2740 nM | O=C1NCCc2[nH]c(-c3cccc4ccc(Nc5c(F)cccc5Cl)nc34)cc21 [Example 7, 2-(2-((2-chloro-6-fluorophenyl)amino)quinolin-8-yl)-6,7-dihydro-1H-pyrrolo[3,2-c]pyridin-4(5H)-one] | –
6.3 nM | 4.6 nM | 5380 nM | O=C1NCCc2[nH]c(-c3cccc4ccc(Oc5cccnc5)nc34)cc21 [Example 39, 2-(2-(3-pyridinyloxy)-8-quinolinyl)-1,5,6,7-tetrahydro-4H-pyrrolo[3,2-c]pyridin-4-one] | –
4.6 nM | 8.6 nM | 6350 nM | O=C1NCCc2[nH]c(-c3cccc4ccc(Oc5c(F)cccc5Cl)nc34)cc21 [Example 9, 2-(2-(2-chloro-6-fluorophenoxy)quinolin-8-yl)-6,7-dihydro-1H-pyrrolo[3,2-c]pyridin-4(5H)-one] | –

Compound | IC50 (Pim-1) | IC50 (Pim-2) | IC50 [1, 2] | IC50 ([1]; read-out: KMS-12-BM IC50 IP)
O=C1NCCn2cc(-c3cccc4ccc(Nc5cccnc5)nc34)cc21 [Example 166, 7-(2-(pyridin-3-ylamino)quinolin-8-yl)-3,4-dihydropyrrolo[1,2-a]pyrazin-1(2H)-one] | 1.1 nM | 2.2 nM | 4310 nM | –
O=C1NCCc2[nH]c(-c3cccc4ccc(Nc5ccccc5)nc34)cc21 [Example 2, 2-(2-(phenylamino)quinolin-8-yl)-6,7-dihydro-1H-pyrrolo[3,2-c]pyridin-4(5H)-one] | 1.6 nM | 8 nM | – | 708 nM
O=C1NCCc2[nH]c(-c3cccc4ccc(Cc5ccccc5)nc34)cc21 [Example 3, 2-(2-benzylquinolin-8-yl)-6,7-dihydro-1H-pyrrolo[3,2-c]pyridin-4(5H)-one] | 12.8 nM | 37 nM | – | 6100 nM
Cc1nc2cccc(-c3cc4c([nH]3)CCNC4=O)c2nc1NC(C)C [Example 192, 2-(3-(isopropylamino)-2-methylquinoxalin-5-yl)-6,7-dihydro-1H-pyrrolo[3,2-c]pyridin-4(5H)-one] | 7.5 nM | 4.9 nM | – | 270 nM
Cc1nc2cccc(-c3cc4c([nH]3)CCNC4=O)c2nc1NC1CCCCC1 [Example 132, 2-(3-(cyclohexylamino)-2-methylquinoxalin-5-yl)-6,7-dihydro-1H-pyrrolo[3,2-c]pyridin-4(5H)-one] | 5.3 nM | 4.9 nM | – | 143 nM
O=C1NCCc2[nH]c(-c3cccc4ccc(Oc5ccccc5Cl)nc34)cc21 [Example 103, 2-(2-(2-chlorophenoxy)quinolin-8-yl)-6,7-dihydro-1H-pyrrolo[3,2-c]pyridin-4(5H)-one] | 8.1 nM | 18.1 nM | – | 7730 nM
O=C1NCCc2[nH]c(-c3cccc4ccc(NC5CCCCC5)nc34)cc21 [Example 83, 2-(2-(cyclohexylamino)quinolin-8-yl)-6,7-dihydro-1H-pyrrolo[3,2-c]pyridin-4(5H)-one] | 2 nM | 15 nM | – | 2910 nM
Cc1nc2cccc(-c3cc4c([nH]3)CCNC4=O)c2nc1NC1COC1 [Example 196, 2-(2-methyl-3-(oxetan-3-ylamino)quinoxalin-5-yl)-6,7-dihydro-1H-pyrrolo[3,2-c]pyridin-4(5H)-one] | 23.8 nM | 11.4 nM | 585 nM | –
CN(c1ccccc1)c1cnc2cccc(-c3cc4c([nH]3)CCNC4=O)c2n1 [Example 188, 2-(3-(methyl(phenyl)amino)quinoxalin-5-yl)-6,7-dihydro-1H-pyrrolo[3,2-c]pyridin-4(5H)-one] | 2.8 nM | 4.4 nM | – | 1010 nM
O=c1[nH]cnc2[nH]c(-c3cccc4ccc(Nc5ccccc5)nc34)cc12 [Example 16, 6-(2-(phenylamino)quinolin-8-yl)-3H-pyrrolo[2,3-d]pyrimidin-4(7H)-one] | 2.7 nM | 13.5 nM | – | 3850 nM
